According to US20220194962A1, “AZAZINOINDAZOLE DERIVATIVE, PREPARATION METHOD THEREFOR AND USE THEREOF” (CHENGDU SCIMOUNT PHARMATECH CO., LTD., priority 2019, published 2022):
Like-named read-outs stand apart in the source and are kept apart here.

Molecular target: T1, human 5-HT3 receptor (Homo sapiens, UniProt P46098)
T1 sequence (P46098 24-478): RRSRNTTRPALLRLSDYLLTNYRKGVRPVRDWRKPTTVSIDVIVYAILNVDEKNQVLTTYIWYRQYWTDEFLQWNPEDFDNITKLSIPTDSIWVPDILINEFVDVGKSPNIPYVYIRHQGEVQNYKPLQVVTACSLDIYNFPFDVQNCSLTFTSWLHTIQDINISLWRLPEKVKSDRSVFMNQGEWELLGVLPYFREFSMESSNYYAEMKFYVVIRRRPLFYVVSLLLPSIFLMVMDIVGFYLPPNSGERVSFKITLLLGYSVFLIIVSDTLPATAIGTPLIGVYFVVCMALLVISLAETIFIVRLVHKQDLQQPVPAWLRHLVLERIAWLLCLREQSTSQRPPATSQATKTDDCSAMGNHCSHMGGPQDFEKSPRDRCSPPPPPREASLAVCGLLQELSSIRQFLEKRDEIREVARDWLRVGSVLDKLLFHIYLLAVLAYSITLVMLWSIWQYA
Experiment: Affinity for human 5-HT3 receptor by scintillation proximity assay (SPA), [9-methyl-3H]BRL-43694 competition
Type: binding
Procedure: The relative affinity of the compound to human 5-HT3 receptor was detected by scintillation proximity assay (SPA). The specific procedures were as follows: the test compound was diluted to 10 mM with 100% DMSO, and then subjected to 10× gradient dilution with 100% DMSO in a 96-well plate, and each of the resultant solution was further diluted with the test buffer to provide 4× test concentration. The sample, 10 nM of [9-methyl-3H]BRL-43694, 3 μg of human 5-HT3 receptor membrane, and 0.5 mg/mL of SPA beads were incubated in 50 mM Tris-HCl (pH 7.5, 3 mM MgCl2, 1 mM EDTA and 10% DMSO), with a final volume of 0.2 mL. By successively adding 50 μL of competitive test compound or buffer, SPA beads, radioactive ligands and 5-HT3 receptor membrane, the binding reaction was performed in the wells of PicoPlates-96 well plate. After it was stirred and incubated overnight at room temperature, the plate was centrifuged at 1500 rpm for 15 min, and then incubated in dark for 30 min. Finally, the 5-min radioactivity was read in the TopCount microplate counter. Total binding control only contained the above buffer used to dilute the test compound, while the nonspecific binding was determined at the presence of 30 μM MDL-72222, and thus the specific binding was deduced by the total binding control minus the nonspecific binding. All experiments were carried out by ten concentrations of competitive ligand, and each group was established multiple holes. ALB-137391 was used as positive control.
ALB-137391 was a 5-HT3 receptor partial agonist, and provided by AMRI company, USA, with a production batch number of 1631-B-R0-01-43-01. The structure was as follows:
The half inhibitory concentration (IC50) was determined from the specific binding data by using XLfit4.1 curve fitting software of IDBS Ltd.
Inhibition constant Ki=IC50/(1+(L/KD)), wherein L=the concentration of radioactive ligands in the test, KD=the affinity of radioactive ligands to receptors.

Compound	IC50	Ki	affinity to human 5-HT3 receptor (in words) (summary of Table 1)	affinity and inhibitory effect on 5-HT3 receptor compared with positive control ALB-137391 (summary of Table 1)	IC50 (human 5-HT3 receptor membrane, 10 nM [9-methyl-3H]BRL-43694, SPA, overnight at room temperature, read-out: IC50)
O=C1c2ccc(F)c3[nH]nc(c23)CCN1[C@@H]1CN2CCC1CC2 [Compound 14, (S)-3-fluoro-7-(quinuclidin-3-yl)-2,7,8,9-tetrahydro-6H-azepino[5,4,3-cd]indazole-6-one]	74 nM	13.4 nM	strong affinity		
O=C1c2ccc(Cl)c3[nH]nc(c23)CCN1[C@@H]1CN2CCC1CC2 [Compound 15, (S)-3-chloro-7-(quinuclidin-3-yl)-2,7,8,9-tetrahydro-6H-azepino[5,4,3-cd]indazole-6-one]	47.1 nM	8.53 nM	strong affinity		
[2H]c1ccc2c3c(n[nH]c13)CCN([C@@H]1CN3CCC1CC3)C2=O [Compound 13, (S)-3-deutero-7-(quinuclidin-3-yl)-2,7,8,9-tetrahydro-6H-azepino[5,4,3-cd]indazole-6-one]	3.31 nM	0.6 nM	strong affinity	even better than that of positive control ALB-137391	
O=C1c2ccc(Br)c3[nH]nc(c23)CCN1[C@@H]1CN2CCC1CC2 [Compound 10, (S)-3-bromo-7-(quinuclidin-3-yl)-2,7,8,9-tetrahydro-6H-azepino[5,4,3-cd]indazole-6-one]	34.2 nM	6.2 nM	strong affinity		
N#Cc1ccc2c3c(n[nH]c13)CCN([C@@H]1CN3CCC1CC3)C2=O [Compound 11, (S)-3-cyano-7-(quinuclidin-3-yl)-2,7,8,9-tetrahydro-6H-azepino[5,4,3-cd]indazole-6-one]		65.1 nM			359 nM
O=C1c2cccc3[nH]nc(c23)CCN1[C@@H]1CN2CCC1CC2 [ALB-137391, reference compound]	4.48 nM	0.81 nM			
O=C1c2ccc(O)c3[nH]nc(c23)CCN1[C@@H]1CN2CCC1CC2 [Compound 12, (S)-3-hydroxyl-7-(quinuclidin-3-yl)-2,7,8,9-tetrahydro-6H-azepino[5,4,3-cd]indazole-6-one]	14 nM	2.53 nM	strong affinity		
